Here are results for three compounds from patent US5889147A (University of Utah Research Foundation, priority 1997, dated 1999).

Entries after “also recorded” stand apart in the source; their conditions may differ. Positions of bridges follow the written chain, without caps; N, C: chain ends. Non-standard residues stand in square brackets, D forms with d. Residues, ends and D or L forms follow the SMILES beside them. Trp(6-Br) = N[C@@H](Cc1c[nH]c2cc(Br)ccc12)C(=O)O; Hyp = O=C(O)[C@@H]1C[C@@H](O)CN1

For assay [1], the system named is mice. The settings on record: mouse, in vivo.
A further assay addresses T1, serotonin 5HT3 receptor (Homo sapiens, UniProt P46098).
T1 sequence (P46098 24-478): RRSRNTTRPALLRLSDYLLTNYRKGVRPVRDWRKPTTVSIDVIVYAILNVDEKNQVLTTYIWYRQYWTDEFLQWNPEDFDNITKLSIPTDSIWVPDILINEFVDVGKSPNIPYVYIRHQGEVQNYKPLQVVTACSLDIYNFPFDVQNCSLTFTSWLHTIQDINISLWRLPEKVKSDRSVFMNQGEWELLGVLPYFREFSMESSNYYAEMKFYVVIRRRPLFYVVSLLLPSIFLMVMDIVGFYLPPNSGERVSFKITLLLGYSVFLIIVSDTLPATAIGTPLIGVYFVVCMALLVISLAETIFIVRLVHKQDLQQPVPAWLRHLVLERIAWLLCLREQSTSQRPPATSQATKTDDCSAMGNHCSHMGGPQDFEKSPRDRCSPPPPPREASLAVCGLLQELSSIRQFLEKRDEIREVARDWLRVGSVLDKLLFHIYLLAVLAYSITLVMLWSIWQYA

Assay [2] relates to Frings audiogenic seizure susceptible mice. The settings on record: mouse, in vivo.
For assay [3], the system named is mice. Conditions: mouse.
The next assay relates to CF No. 1 mice. The settings on record: mouse, in vivo, sc.

For `NCC(=O)N[C@H]1CSSC[C@@H](C(N)=O)NC(=O)[C@H](Cc2c[nH]c3cc(Br)ccc23)NC(=O)[C@@H]2CCCN2C(=O)[C@H](CCC(=O)O)NC(=O)[C@@H](Cc2c[nH]c3ccccc23)NC(=O)[C@@H]2C[C@@H](O)CN2C1=O` [bromocontryphan, GCX1 X2 EPX5 C--NH2, X1 is Hyp, X2 is D-Trp and X5 is 6-bromo-L-Trp] (H-GC[Hyp][dW]EP[Trp(6-Br)]C-NH2; disulfide 2-8), in the assay on mice [1], the “biological activity in mammalian systems, compared with contryphan R and des[Gly1]contryphan R” value was “very similar to the spectrum of activity previously observed for both contryphan R and des[Gly^1 ]contryphan R”.

Turning to “Gly-Cys-Thr-Arg-Thr-Cys-Gly-Gly-Xaa1 -Lys-Cys-Thr-Gly-Thr-Cys-Thr-Cys-Thr-Asn-Ser-Ser-Lys-Cys-Gly-Cys-Arg-Tyr-Asn-Val-His-Pro-Ser-Gly-Xaa2 -Gly-Cys-Gly-Cys-Ala-Cys-Ser, where Xaa1 is Hyp and Xaa2 is 6-bromo-L-tryptophan [sigma conotoxin]”, at serotonin 5HT3 receptor, the receptor targeted result is given as “targets the serotonin 5HT3 receptor”.

As to “Xaa1 -Ala-Thr-Ile-Asp-Xaa2 -Cys-Xaa2-Xaa2 -Thr-Cys-Asn-Val-Thr-Phe-Lys-Thr-Cys-Cys-Gly-Xaa3-Xaa3-Gly-Asp-Trp-Gln-Cys-Val-Xaa2-Ala-Cys-Pro-Val-OH, where Xaa3 =hydroxyproline, Xaa2 =Gla and Xaa1 =bromotryptophan [Bromosleeper Peptide]”, the values for the anticonvulsant activity result (in assay [2]; with CF No. 1 mice) were “seen to have activity in this model” and “found to have anticonvulsant activity”, respectively. Besides, the “in vivo effect in very young (<2 weeks old) and older (>3 weeks old) mice” value with mice [3] is “induced sleep in mice of both age groups”. Also, the “Observed Effects in Mice: lethargic/drowsy after (onset time)” value in the assay on mice [3] (in vivo) is recorded as “≈ 15 min; also recorded: ≈ 19 min; also recorded: ≈ 11 min”. In addition, the “dependence of potency on the age of the mice” value in the assay with mice [3] (in vivo) is listed as “more potent in 9-day-old mice than in the older mice”.
